Reference: paper PMC8880098, “Synthesis, Antibacterial Evaluation, and Computational Studies of a Diverse Set of Linezolid Conjugates” (Pharmaceuticals, 2022)
Converted amounts (≈) assume the structure as drawn. Like-named read-outs stand apart in the source and are kept apart here.

Assays:
[1] = test system: Staphylococcus aureus ATCC 6538; experiment: microbe, parasite or virus in culture; design: species or system bacteria; Broth microdilution MIC in Mueller-Hinton broth, absorbance at 620 nm; conditions: ATCC6538, 24 h, read-out: Observed MIC, uM (S. aureus)
Source text: (§1) Antibacterial properties of the synthesized compounds (3a–k, 5a–f, 7a–c, 9a–c, 11a–f, 13 and 15) were screened against Gram-positive (Staphylococcus aureus ATCC 6538, Bacillus subtilis ATCC 6633) and Gram-negative (Pseudomonas aeruginosa ATCC 15,692 and Escherichia coli ATCC 47076) bacteria utilizing the standard technique. Linezolid was used as a standard reference/drug in the current study. The tested bacterial strains were obtained from MERCIN Center, Faculty of Agriculture, Ain Shams University, Cairo, Egypt. To determine the antibacterial activity, stock solutions of the tested compounds and standard reference were prepared with up to 100% DMSO and stored at […]. If necessary, the solutions were heated to 40–60 °C before testing to facilitate complete dissolution. Double distilled water was used in all dilutions prepared. […] A microdilution susceptibility test was used for MIC determination (Mueller–Hinton broth in 96-well plates) according to the CLSI (the Clinical and Laboratory Standards Institute, Malvern, PA, USA). The bacterial inoculum was adjusted to approximately 2.5–3 × 10^4 cells/mL in Mueller–Hinton broth and incubated in a ratio of 1:1 with the test derivatives in polystyrene 96-well flat-bottom microplates. Positive growth control (without test derivatives) and negative control (without bacteria) were included. The microplates were placed in an incubator set to 37 °C for 24 h. Absorbance was measured at 620 nm at the end of the incubation period. The cut-off level for follow-up studies was defined as a minimum of 90% inhibition of growth compared to the untreated sample. Experiments were conducted once in triplicate. For selected compounds, minimum inhibitory concentration (MIC) values were determined by dose–response experiments. Experiments were performed at least twice, in triplicate per concentration tested.

[2] = test system: Bacillus subtilis ATCC 6633; experiment: microbe, parasite or virus in culture; design: species or system bacteria; Broth microdilution MIC in Mueller-Hinton broth, absorbance at 620 nm; conditions: ATCC6633, 24 h, read-out: Observed MIC, uM (B. subtilis)
Source text: as §1

[3] = test system: Staphylococcus aureus ATCC 6538; experiment: Antibacterial MIC, microdilution susceptibility test (CLSI); assay type: cell-based; conditions: Staphylococcus aureus, ATCC6538, 24 h, Mueller–Hinton broth, 37 °C, 24 h; read-out: MIC, μg/mL ± SE, S. Aureus (ATCC 6538)
Source text: (§2) The synthesized linezolid conjugates (3a–k, 5a–f, 7a–c, 9a–c, 11a–f, 13, and 15) were subjected for antimicrobial properties determination against Gram-positive (Staphylococcus aureus ATCC 6538, Bacillus subtilis ATCC 6633) and Gram-negative (Pseudomonas aeruginosa ATCC 15692, Escherichia coli ATCC 47076) bacteria by the standard technique.
(§3) Antibacterial properties of the synthesized compounds (3a–k, 5a–f, 7a–c, 9a–c, 11a–f, 13 and 15) were screened against Gram-positive (Staphylococcus aureus ATCC 6538, Bacillus subtilis ATCC 6633) and Gram-negative (Pseudomonas aeruginosa ATCC 15,692 and Escherichia coli ATCC 47076) bacteria utilizing the standard technique. Linezolid was used as a standard reference/drug in the current study. The tested bacterial strains were obtained from MERCIN Center, Faculty of Agriculture, Ain Shams University, Cairo, Egypt.
as §1, with “To” for “Antibacterial properties of the synthesized compounds (3a–k, 5a–f, 7a–c, 9a–c, 11a–f, 13 and 15) were screened against Gram-positive (Staphylococcus aureus ATCC 6538, Bacillus subtilis ATCC 6633) and Gram-negative (Pseudomonas aeruginosa ATCC 15,692 and Escherichia coli ATCC 47076) bacteria utilizing the standard technique. Linezolid was used as a standard reference/drug in the current study. The tested bacterial strains were obtained from MERCIN Center, Faculty of Agriculture, Ain Shams University, Cairo, Egypt. To”

[4] = test system: Escherichia coli ATCC 47076; experiment: as above; assay type: cell-based
Source text: as §2, §3
as §1, with “To” for “Antibacterial properties of the synthesized compounds (3a–k, 5a–f, 7a–c, 9a–c, 11a–f, 13 and 15) were screened against Gram-positive (Staphylococcus aureus ATCC 6538, Bacillus subtilis ATCC 6633) and Gram-negative (Pseudomonas aeruginosa ATCC 15,692 and Escherichia coli ATCC 47076) bacteria utilizing the standard technique. Linezolid was used as a standard reference/drug in the current study. The tested bacterial strains were obtained from MERCIN Center, Faculty of Agriculture, Ain Shams University, Cairo, Egypt. To”

[5] = test system: Bacillus subtilis ATCC 6633; experiment: as above; assay type: cell-based; conditions: Bacillus subtilis, ATCC6633, 24 h, Mueller–Hinton broth, 37 °C, 24 h; read-out: MIC, μg/mL ± SE, B. Subtilis (ATCC 6633)
Source text: as §2, §3
as §1, with “To” for “Antibacterial properties of the synthesized compounds (3a–k, 5a–f, 7a–c, 9a–c, 11a–f, 13 and 15) were screened against Gram-positive (Staphylococcus aureus ATCC 6538, Bacillus subtilis ATCC 6633) and Gram-negative (Pseudomonas aeruginosa ATCC 15,692 and Escherichia coli ATCC 47076) bacteria utilizing the standard technique. Linezolid was used as a standard reference/drug in the current study. The tested bacterial strains were obtained from MERCIN Center, Faculty of Agriculture, Ain Shams University, Cairo, Egypt. To”

[6] = test system: Pseudomonas aeruginosa ATCC 15692; experiment: as above; assay type: cell-based
Source text: as §2, §3
as §1, with “To” for “Antibacterial properties of the synthesized compounds (3a–k, 5a–f, 7a–c, 9a–c, 11a–f, 13 and 15) were screened against Gram-positive (Staphylococcus aureus ATCC 6538, Bacillus subtilis ATCC 6633) and Gram-negative (Pseudomonas aeruginosa ATCC 15,692 and Escherichia coli ATCC 47076) bacteria utilizing the standard technique. Linezolid was used as a standard reference/drug in the current study. The tested bacterial strains were obtained from MERCIN Center, Faculty of Agriculture, Ain Shams University, Cairo, Egypt. To”

[7] = ATCC47076, Mueller–Hinton broth, 37 °C, 24 h, read-out: MIC, μg/mL ± SE, E. Coli (ATCC 47076)
[8] = ATCC47076, value in parentheses, read-out: MIC (μmol), E. Coli (ATCC 47076) (converted)
[9] = ATCC15692, Mueller–Hinton broth, 37 °C, 24 h, read-out: MIC, μg/mL ± SE, P. Aeruginosa (ATCC 15692)
[10] = ATCC15692, value in parentheses, read-out: MIC (μmol), P. Aeruginosa (ATCC 15692) (converted)

CC(C)C[C@H](NC(=O)c1cnccn1)C(=O)NC[C@H]1CN(c2ccc(N3CCOCC3)c(F)c2)C(=O)O1 [Compound 9a, N-((S)-1-((((S)-3-(3-Fluoro-4-morpholinophenyl)-2-oxooxazolidin-5-yl)methyl)amino) -4-methyl-1-oxopentan-2-yl)pyrazine-2-carboxamide]
MIC [1]: 62.2 µM (≈ 32 µg/mL) | MIC [2]: 62.2 µM (≈ 32 µg/mL) | MIC [3]: 32 ± 0.4 µg/mL (≈ 62.2 µM) | MIC [4, 7]: 32 ± 1.6 µg/mL | MIC [4, 8]: 62.2 µM | MIC [5]: 32 ± 2 µg/mL (≈ 62.2 µM) | MIC [6, 9]: 32 ± 1.3 µg/mL | MIC [6, 10]: 62.2 µM | melting point: 90 to 92 °C

O=C(N[C@@H](Cc1ccccc1)C(=O)NC[C@H]1CN(c2ccc(N3CCOCC3)c(F)c2)C(=O)O1)OCc1ccccc1 [Compound 3e, Benzyl ((S)-1-((((S)-3-(3-fluoro-4-morpholinophenyl)-2-oxooxazolidin-5-yl)methyl)amino)-1-oxo-3-phenylpropan-2-yl)carbamate]
MIC [1]: 55.5 µM (≈ 32 µg/mL) | MIC [2]: 55.5 µM (≈ 32 µg/mL) | MIC [3]: 32 ± 2.2 µg/mL (≈ 55.5 µM) | MIC [4, 7]: 32 ± 1 µg/mL | MIC [4, 8]: 55.5 µM | MIC [5]: 32 ± 1.9 µg/mL (≈ 55.5 µM) | MIC [6, 9]: 64 ± 2.1 µg/mL | MIC [6, 10]: 111 µM | melting point: 120 to 122 °C

CC(C)[C@H](NC(=O)c1cnccn1)C(=O)NC[C@H]1CN(c2ccc(N3CCOCC3)c(F)c2)C(=O)O1 [Compound 9b, N-((S)-1-((((S)-3-(3-Fluoro-4-morpholinophenyl)-2-oxooxazolidin-5-yl)methyl)amino) -3-methyl-1-oxobutan-2-yl)pyrazine-2-carboxamide]
MIC [1]: 63.9 µM (≈ 32 µg/mL) | MIC [2]: 63.9 µM (≈ 32 µg/mL) | MIC [3]: 32 ± 1.7 µg/mL (≈ 63.9 µM) | MIC [4, 7]: 32 ± 3.4 µg/mL | MIC [4, 8]: 63.9 µM | MIC [5]: 32 ± 1.3 µg/mL (≈ 63.9 µM) | MIC [6, 9]: 32 ± 2.5 µg/mL | MIC [6, 10]: 63.9 µM | melting point: 94 to 96 °C

O=C(NC[C@H]1CN(c2ccc(N3CCOCC3)c(F)c2)C(=O)O1)c1cnccn1 [Compound 7c, (S)-N-((3-(3-Fluoro-4-morpholinophenyl)-2-oxooxazolidin-5-yl)methyl)pyrazine-2-carboxamide]
MIC [1]: 19.9 µM (≈ 8 µg/mL) | MIC [2]: 4.98 µM (≈ 2 µg/mL) | MIC [3]: 8 ± 0.1 µg/mL (≈ 19.9 µM) | MIC [4, 7]: 32 ± 0.7 µg/mL | MIC [4, 8]: 79.7 µM | MIC [5]: 2 ± 0.1 µg/mL (≈ 4.98 µM) | MIC [6, 9]: 32 ± 1.1 µg/mL | MIC [6, 10]: 79.7 µM | melting point: 190 to 192 °C

O=C1O[C@@H](CNCc2ccc(F)cc2F)CN1c1ccc(N2CCOCC2)c(F)c1 [Compound 11e, (S)-5-[{(2,4-Difluorobenzyl)amino}methyl]-3-(3-fluoro-4-morpholinophenyl) oxazolid-ine-2-one]
MIC [1]: 75.9 µM (≈ 32 µg/mL) | MIC [2]: 75.9 µM (≈ 32 µg/mL) | MIC [3]: 32 ± 0.2 µg/mL (≈ 75.9 µM) | MIC [4, 7]: 32 ± 0.3 µg/mL | MIC [4, 8]: 75.9 µM | MIC [5]: 32 ± 1.3 µg/mL (≈ 75.9 µM) | MIC [6, 9]: 32 ± 0.5 µg/mL | MIC [6, 10]: 75.9 µM | melting point: 74 to 76 °C

CC(C)(C)OC(=O)N[C@@H](Cc1ccccc1)C(=O)NC[C@H]1CN(c2ccc(N3CCOCC3)c(F)c2)C(=O)O1 [Compound 3j, Tert-butyl ((S)-1-((((S)-3-(3-fluoro-4-morpholinophenyl)-2-oxooxazolidin-5-yl)methyl)amino)-1-oxo-3-phenylpropan-2-yl)carbamate]
MIC [1]: 118 µM (≈ 64 µg/mL) | MIC [2]: 59 µM (≈ 32 µg/mL) | MIC [3]: 64 ± 2.5 µg/mL (≈ 118 µM) | MIC [4, 7]: 32 ± 0.9 µg/mL | MIC [4, 8]: 59 µM | MIC [5]: 32 ± 1.3 µg/mL (≈ 59 µM) | MIC [6, 9]: 64 ± 1.8 µg/mL | MIC [6, 10]: 118 µM | melting point: 69 to 71 °C

O=C(CCCC[C@@H]1SC[C@@H]2NC(=O)N[C@@H]21)NC[C@H]1CN(c2ccc(N3CCOCC3)c(F)c2)C(=O)O1 [Compound 15, N-(((S)-3-(3-Fluoro-4-morpholinophenyl)-2-oxooxazolidin-5-yl)methyl)-5-((3aS, 4S, 6aR)-2-oxohexahydro-1H-thieno [3,4-d]imidazol-4-yl)pentanamide]
MIC [1]: 61.3 µM (≈ 32 µg/mL) | MIC [2]: 61.3 µM (≈ 32 µg/mL) | MIC [3]: 32 ± 0.4 µg/mL (≈ 61.3 µM) | MIC [4, 7]: 32 ± 0.7 µg/mL | MIC [4, 8]: 61.3 µM | MIC [5]: 32 ± 0.2 µg/mL (≈ 61.3 µM) | MIC [6, 9]: 32 ± 0.3 µg/mL | MIC [6, 10]: 61.3 µM | melting point: 222 to 224 °C

O=C(NC[C@H]1CN(c2ccc(N3CCOCC3)c(F)c2)C(=O)O1)c1cccnc1 [Compound 7b, (S)-N-((3-(3-Fluoro-4-morpholinophenyl)-2-oxooxazolidin-5-yl)methyl)nicotinamide]
MIC [1]: 20 µM (≈ 8 µg/mL) | MIC [2]: 5 µM (≈ 2 µg/mL) | MIC [3]: 8 ± 0.2 µg/mL (≈ 20 µM) | MIC [4, 7]: 32 ± 1 µg/mL | MIC [4, 8]: 79.9 µM | MIC [5]: 2 ± 0.1 µg/mL (≈ 4.99 µM) | MIC [6, 9]: 32 ± 1.2 µg/mL | MIC [6, 10]: 79.9 µM | melting point: 182 to 184 °C

O=C(N[C@@H](Cc1ccccc1)C(=O)NC[C@H]1CN(c2ccc(N3CCOCC3)c(F)c2)C(=O)O1)c1cnccn1 [Compound 9c, N-((S)-1-((((S)-3-(3-Fluoro-4-morpholinophenyl)-2-oxooxazolidin-5-yl)methyl)amino) -1-oxo-3-phenylpropan-2-yl)pyrazine-2-carboxamide]
MIC [1]: 58.3 µM (≈ 32 µg/mL) | MIC [2]: 58.3 µM (≈ 32 µg/mL) | MIC [3]: 32 ± 0.9 µg/mL (≈ 58.3 µM) | MIC [4, 7]: 32 ± 1 µg/mL | MIC [4, 8]: 58.3 µM | MIC [5]: 32 ± 0.5 µg/mL (≈ 58.3 µM) | MIC [6, 9]: 32 ± 0.8 µg/mL | MIC [6, 10]: 58.3 µM | melting point: 172 to 174 °C
